According to ChEMBL document CHEMBL1201862, “PubChem BioAssay data set” (2004):
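Protocol summary: plate cells (96-well), add compound at 5 concentrations, incubate 48 h, interpolate endpoints linearly. The concentration for 50% growth inhibition is given as GI50.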 Activity calls are given as the source filed them. No stated cut-off is given here; in the data, active = GI50 up to about 1.1 µM and inactive = higher.

Key:
Test in all cases: NCI-60 cell line screen, 48 h
[1] = system: HCT-116
[2] = system: EKVX
[3] = system: A549
[4] = system: NCI-H23
[5] = system: HL-60
[6] = system: HOP-62
[7] = system: RPMI-8226
[8] = system: BT-549
[9] = system: TK-10
[10] = system: MDA-MB-231
[11] = system: SW-620
[12] = system: U-251
[13] = system: MCF7
[14] = system: SK-OV-3
[15] = system: SN12C
[16] = system: SF-268
[17] = system: SR

Measured: GI50

CCCc1cc(COC)c(C#N)c(O)n1
inactive: [1] > 100 µM | [2] > 100 µM | [3] > 100 µM | [4] > 100 µM | [5] > 100 µM | [6] > 100 µM | [7] > 100 µM | [8] > 100 µM | [9] > 100 µM | [10] > 100 µM | [11] > 100 µM | [12] > 100 µM | [13] > 100 µM | [14] > 100 µM | [15] > 100 µM | [16] > 100 µM

CC(C)(C)c1c2c(c(C(C)(C)C)c3c1OCN(Cc1ccccc1)C3)OCN(Cc1ccccc1)C2
inactive: [1] 11.3 µM | [2] 12.7 µM | [3] 17.6 µM | [4] 12.9 µM | [6] 18.9 µM | [7] 8.69 µM | [8] 16.9 µM | [9] 15 µM | [10] 15.5 µM | [11] 24.5 µM | [12] 14.8 µM | [17] 18.9 µM | [13] 11 µM | [14] 22.6 µM | [15] 15.4 µM | [16] 16.2 µM

Cc1ncc(CSc2ccccc2N)c(CO)c1O
inactive: [1] > 100 µM | [2] > 100 µM | [3] > 100 µM | [4] > 100 µM | [6] > 100 µM | [7] > 100 µM | [8] > 100 µM | [9] > 100 µM | [10] > 100 µM | [11] > 100 µM | [12] > 100 µM | [17] > 100 µM | [13] > 100 µM | [14] > 100 µM | [15] > 100 µM | [16] > 100 µM

CCOC(=O)c1c(Br)c(-c2ccc(OC)cc2)c(Br)n1C
inactive: [1] 6.56 µM | [2] 16.8 µM | [3] 21.3 µM | [4] 28 µM | [5] 4.06 µM | [6] 11.8 µM | [7] 17.7 µM | [8] 22.4 µM | [9] 20.7 µM | [10] 17 µM | [11] 9.46 µM | [12] 33.2 µM | [17] 2.23 µM | [13] 8.39 µM | [14] 18.5 µM | [15] 12.9 µM | [16] 55.5 µM

O=c1[nH]c2cc(C(F)(F)F)ccc2nc1Cc1ccccc1
inactive: [1] 71.6 µM | [2] > 100 µM | [4] 23.4 µM | [5] > 100 µM | [6] 28.9 µM | [7] > 100 µM | [8] > 100 µM | [9] > 100 µM | [10] 30.8 µM | [11] > 100 µM | [12] 76 µM | [17] 36.6 µM | [13] > 100 µM | [14] 33 µM | [16] 44.2 µM

N#CC1C(=O)N(c2ccccc2)NC12OC(=O)c1ccncc12 (configuration not stated)
inactive: [1] > 20 µM | [2] > 20 µM | [3] > 20 µM | [4] > 20 µM | [5] > 20 µM | [7] > 20 µM | [8] > 20 µM | [10] > 20 µM | [11] > 20 µM | [12] > 20 µM | [17] > 20 µM | [13] > 20 µM | [14] > 20 µM | [15] > 20 µM

CCOC(=O)C1=C(C(=O)c2ccc(C)cc2)C(c2cccc([N+](=O)[O-])c2)C(C(=O)c2ccc(C)cc2)=C(C(=O)OCC)N1
inactive: [1] 6.75 µM | [2] 24.1 µM | [3] 24.2 µM | [4] 15.8 µM | [5] 29.8 µM | [6] 19.5 µM | [8] 21.1 µM | [9] 17.2 µM | [10] 13.9 µM | [11] 14.1 µM | [12] 13.1 µM | [17] 2.93 µM | [13] 16 µM | [14] 5.92 µM | [15] 17.6 µM | [16] 17.7 µM

O=C(NCCCNCCNC(=O)c1cc(-c2ccccc2)nc2ccccc12)c1cc(-c2ccccc2)nc2ccccc12
inactive: [1] 1.68 µM | [2] 2.16 µM | [3] 1.73 µM | [5] 1.59 µM | [6] 1.69 µM | [7] 3.25 µM | [8] 11.6 µM | [9] 1.66 µM | [10] 1.86 µM | [11] 1.65 µM | [12] 1.85 µM | [17] 2.75 µM | [13] 1.68 µM | [14] 3.27 µM | [15] 1.72 µM | [16] 2.1 µM

CCc1nc(N)nc(N)c1-c1ccc2nnn(O)c2c1
inactive: [1] > 83.8 µM | [2] > 100 µM | [3] > 73.6 µM | [4] > 100 µM | [5] > 100 µM | [6] > 100 µM | [7] > 100 µM | [8] > 100 µM | [9] > 100 µM | [10] > 100 µM | [11] > 100 µM | [12] > 100 µM | [17] > 100 µM | [13] > 100 µM | [14] > 100 µM | [15] > 100 µM | [16] > 100 µM

CN1CN(c2ccccc2)C2(CCN(CCc3csc4ccccc34)CC2)C1=O
inactive: [1] 11.3 µM | [2] 12.8 µM | [3] 24.2 µM | [4] 17.4 µM | [5] 9.38 µM | [6] 12.2 µM | [7] 6.84 µM | [8] 4.71 µM | [9] 14 µM | [10] > 10 µM | [11] 16.9 µM | [12] 14.5 µM | [17] 11.7 µM | [13] 13.3 µM | [14] 25.9 µM | [15] 15.6 µM | [16] 28.8 µM

C=CCc1cccc2cc(C(=O)NCc3ccccc3)c(=N)oc12
inactive: [1] 24.2 µM | [2] 26.1 µM | [3] 40.1 µM | [4] 31.9 µM | [5] 25.3 µM | [6] 38.5 µM | [7] 79.8 µM | [8] 40.3 µM | [10] 30.6 µM | [11] 49.4 µM | [12] 38.2 µM | [17] > 100 µM | [13] 47.8 µM | [14] 46.2 µM | [15] 27.6 µM | [16] 36.1 µM

CCOC(=O)c1nc2c3c(ncn2n1)Oc1c(c(-c2ccccc2)nn1-c1ccccc1)C3c1ccc(OC)c(OC)c1 (configuration not stated)
inactive: [1] 65.2 µM | [2] 50.4 µM | [3] 59.2 µM | [4] > 100 µM | [6] 16.3 µM | [7] 25.9 µM | [8] 36.3 µM | [9] > 100 µM | [10] 37.2 µM | [11] > 100 µM | [12] 31.3 µM | [17] 51.8 µM | [13] > 100 µM | [14] 92.9 µM | [15] > 100 µM | [16] 15.3 µM

CCOP(=O)(OCC)/C(=C/n1c(=S)[nH]c2ccccc21)C(=O)OC
inactive: [1] > 100 µM | [2] > 100 µM | [3] > 100 µM | [4] > 100 µM | [5] > 100 µM | [6] > 100 µM | [7] > 100 µM | [8] > 100 µM | [10] > 100 µM | [11] > 100 µM | [12] > 100 µM | [17] > 100 µM | [13] > 100 µM | [14] > 100 µM | [15] > 100 µM | [16] > 100 µM

O=S(=O)(CCC[C@H]1[C@@H](CCOCc2ccccc2)C2CCCN1O2)c1ccccc1 (some centres not stated)
inactive: [1] > 100 µM | [2] 57.3 µM | [3] > 100 µM | [4] > 100 µM | [6] > 100 µM | [8] 41 µM | [9] > 100 µM | [10] > 100 µM | [11] > 100 µM | [12] > 100 µM | [17] > 100 µM | [13] > 100 µM | [14] > 100 µM | [15] > 100 µM | [16] > 100 µM

COc1ccc([C@H]2CC(=O)C[C@H](c3ccc(OC)cc3)C23C(=O)c2ccccc2C3=O)cc1
inactive: [1] 4.46 µM | [2] 4.59 µM | [3] 5.97 µM | [4] 26.1 µM | [5] 2.33 µM | [6] 6.25 µM | [7] 4.54 µM | [8] 5.65 µM | [9] 7.82 µM | [10] 2.39 µM | [11] 3.53 µM | [12] 4.24 µM | [17] 3.28 µM | [13] 7.06 µM | [14] 3.97 µM | [15] 7.57 µM | [16] 6.76 µM

COc1ccc2c(c1)C1Oc3ccccc3CC1(O)CO2 (configuration not stated)
inactive: [1] > 100 µM | [2] > 100 µM | [3] > 100 µM | [4] > 100 µM | [6] > 100 µM | [7] > 100 µM | [8] > 100 µM | [9] > 100 µM | [10] > 100 µM | [11] > 100 µM | [12] > 100 µM | [17] > 100 µM | [13] > 100 µM | [14] > 100 µM | [15] > 100 µM | [16] > 100 µM

COC(=O)C(=O)CC(=O)c1cccc(OC)c1
inactive: [1] > 100 µM | [2] > 100 µM | [3] > 100 µM | [4] > 100 µM | [5] > 100 µM | [6] > 100 µM | [7] > 100 µM | [8] > 100 µM | [9] 78.3 µM | [10] > 100 µM | [11] > 100 µM | [12] > 100 µM | [13] > 100 µM | [14] > 100 µM | [15] > 100 µM | [16] > 100 µM
